Common to all, as to assay: Test A preemergence
Assay type in all cases: in vivo

One test concerns Kochia (Kochia scoparia). Conditions: Bassia scoparia, pre-emergence, 240 h, preemergence, read-out: Plant response rating, Kochia; for pest or weed control at 125 g/ha: 125 g ai/ha, visual rating after approx. 10 d, 0 to 100 scale where 0 is no effect and 100 is complete control; for pest or weed control at 500 g/ha: 500 g ai/ha, 0 to 100 scale, 0 = no effect, 100 = complete control. Summed up: (§1)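 Visual injury, scored on a 0–100 scale relative to untreated controls, was recorded about 10 d after application. Treatments were a preemergence soil spray over planted seeds or a postemergence spray on plants at the one- to two-leaf stage, 2 to 10 cm tall, all in loam soil–sand blend in the greenhouse.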

Test [1] has as its system giant foxtail (Setaria faberii). Conditions: Setaria faberi, pre-emergence, 240 h, preemergence, read-out: Plant response rating, Foxtail, Giant; for pest or weed control at 125 g/ha: 125 g ai/ha, visual rating after approx. 10 d, 0 to 100 scale where 0 is no effect and 100 is complete control; for pest or weed control at 500 g/ha: 500 g ai/ha, 0 to 100 scale, 0 = no effect, 100 = complete control. Summed up:
as §1

In test [2] the test system is barnyardgrass (Echinochloa crus-galli). Conditions: Echinochloa crus-galli, pre-emergence, 240 h, preemergence, read-out: Plant response rating, Barnyardgrass; for pest or weed control at 125 g/ha: 125 g ai/ha, visual rating after approx. 10 d, 0 to 100 scale where 0 is no effect and 100 is complete control; for pest or weed control at 500 g/ha: 500 g ai/ha, 0 to 100 scale, 0 = no effect, 100 = complete control. In short, it runs like this:
as §1

In test [3] the test system is pigweed (Amaranthus retroflexus). Conditions: Amaranthus retroflexus, pre-emergence, 240 h, preemergence, read-out: Plant response rating, Pigweed; for pest or weed control at 125 g/ha: 125 g ai/ha, visual rating after approx. 10 d, 0 to 100 scale where 0 is no effect and 100 is complete control; for pest or weed control at 500 g/ha: 500 g ai/ha, 0 to 100 scale, 0 = no effect, 100 = complete control.

Test [4] relates to ragweed (common ragweed, Ambrosia elatior). Conditions: Ambrosia artemisiifolia, pre-emergence, 240 h, preemergence, read-out: Plant response rating, Ragweed; for pest or weed control at 125 g/ha: 125 g ai/ha, visual rating after approx. 10 d, 0 to 100 scale where 0 is no effect and 100 is complete control; for pest or weed control at 500 g/ha: 500 g ai/ha, 0 to 100 scale, 0 = no effect, 100 = complete control. In short, it runs like this: as §1

Molecules are shown by their SMILES.

As to `C=CCN1C[C@H](c2ccc(OC)c(F)c2)[C@@H](C(=O)Nc2ccccc2C(F)(F)F)C1=O` [Compound 723], the pest or weed control at 125 g/ha (in the test on Kochia (Kochia scoparia); in test [1]; in test [2]; in test [3]; in test [4]) was 0% in each case. Moreover, the pest or weed control at 500 g/ha in the test on Kochia (Kochia scoparia) is 0%; in test [1] it was 50%; in test [2], 0%; in test [3] it was 0%; in test [4], 0%.

With `O=C1NC[C@H](c2ccc3c(c2)OCO3)[C@H]1C(=O)Nc1cccc(F)c1F` [Compound 731], the pest or weed control at 125 g/ha with Kochia (Kochia scoparia) is 0%; in test [1] it was 40%; in test [2] it was 80%; in test [3], 0%; in test [4], 0%. In addition, the pest or weed control at 500 g/ha with Kochia (Kochia scoparia) was 60%; in test [1], 90%; in test [2] it was 90%; in test [3] it was 0%; in test [4], 70%.

For `Cc1ccc([C@H]2CN(C)C(=O)[C@@H]2C(=O)Nc2cccc(F)c2C)cc1C` [Compound 732], the pest or weed control at 125 g/ha turned out to be 70% with Kochia (Kochia scoparia); 90% in test [1]; 90% in test [2]; 0% in test [3]; 0% in test [4]. For the same compound, the pest or weed control at 500 g/ha with Kochia (Kochia scoparia) worked out at 90%; in test [1], 90%; in test [2] it was 100%; in test [3], 20%; in test [4], 70%.

Consider `CCc1cc(CC)cc([C@H]2CN(C)C(=O)[C@@H]2C(=O)Nc2ccccc2C(F)(F)F)c1` [Compound 737], for which the pest or weed control at 125 g/ha is 40% with Kochia (Kochia scoparia); 90% in test [1]; 70% in test [2]; 0% in test [3]; 0% in test [4]. Further, the pest or weed control at 500 g/ha in the test with Kochia (Kochia scoparia) was 50%; in test [1], 90%; in test [2], 80%; in test [3] it was 0%; in test [4], 0%.

For the compound `O=C1NC[C@H](c2ccc(C(F)(F)F)cc2)[C@H]1C(=O)Nc1ccccc1C1CC1` [Compound 746], the pest or weed control at 125 g/ha in the test on Kochia (Kochia scoparia) amounted to 0%; in test [1], 80%; in test [2] it was 0%; in test [3], 0%; in test [4] it was 0%. Also, the pest or weed control at 500 g/ha was found to be 60% with Kochia (Kochia scoparia); 90% in test [1]; 0% in test [2]; 20% in test [3]; 0% in test [4].

`CN1C[C@H](c2ccc(C(F)(F)F)cc2)[C@@H](C(=O)Nc2ccccc2C2CC2)C1=O` [Compound 747]: the pest or weed control at 125 g/ha came to 60% in the test with Kochia (Kochia scoparia); 90% in test [1]; 0% in test [2]; 50% in test [3]; 20% in test [4]. Further, the pest or weed control at 500 g/ha with Kochia (Kochia scoparia) was found to be 80%; in test [1], 90%; in test [2], 70%; in test [3], 50%; in test [4] it was 0%.

With `O=C1NC[C@H](c2cccc(C(F)(F)F)c2)[C@H]1C(=O)Nc1ccccc1C1CC1` [Compound 748], the pest or weed control at 125 g/ha with Kochia (Kochia scoparia) was 0%; in test [1], 40%; in test [2], 0%; in test [3], 0%; in test [4], 0%. The pest or weed control at 500 g/ha in the test with Kochia (Kochia scoparia) was 0%; in test [1], 90%; in test [2], 30%; in test [3], 0%; in test [4], 0%.

With `O=C1NC[C@H](c2cscn2)[C@H]1C(=O)Nc1ccccc1F` [Compound 752], the pest or weed control at 125 g/ha with Kochia (Kochia scoparia) was found to be 60%; in test [1] it was 90%; in test [2], 30%; in test [3], 20%; in test [4], 40%. In addition, the pest or weed control at 500 g/ha was 70% in the test on Kochia (Kochia scoparia); 90% in test [1]; 90% in test [2]; 40% in test [3]; 60% in test [4].

Turning to `O=C1NC[C@H](c2cccc3c2OC(F)(F)O3)[C@H]1C(=O)Nc1ccccc1F` [Compound 754], the pest or weed control at 125 g/ha is 0% in the test on Kochia (Kochia scoparia); 70% in test [1]; 80% in test [2]; 0% in test [3]; 0% in test [4]. The pest or weed control at 500 g/ha in the test with Kochia (Kochia scoparia) came to 0%; in test [1] it was 90%; in test [2], 100%; in test [3], 0%; in test [4], 0%.

Regarding `O=C1NC[C@H](c2cc(F)c(F)c(F)c2)[C@H]1C(=O)Nc1ccc(F)c(F)c1F` [Compound 756], the pest or weed control at 125 g/ha was 70% in the test with Kochia (Kochia scoparia); 100% in test [1]; 100% in test [2]; 40% in test [3]; 0% in test [4]. The pest or weed control at 500 g/ha in the test with Kochia (Kochia scoparia) was found to be 70%; in test [1], 100%; in test [2], 100%; in test [3], 70%; in test [4] it was 30%.

Regarding `CN1C[C@H](c2cc(F)c(F)c(F)c2)[C@@H](C(=O)Nc2ccc(F)c(F)c2F)C1=O` [Compound 757], the pest or weed control at 125 g/ha was found to be 70% with Kochia (Kochia scoparia); 90% in test [1]; 90% in test [2]; 30% in test [3]; 20% in test [4]. Also, the pest or weed control at 500 g/ha came out at 70% in the test on Kochia (Kochia scoparia); 90% in test [1]; 90% in test [2]; 70% in test [3]; 90% in test [4].

Take `CN1C[C@H](c2cc(F)cc(F)c2)[C@@H](C(=O)Nc2ccc(F)cc2C(F)(F)F)C1=O` [Compound 758]: the pest or weed control at 125 g/ha with Kochia (Kochia scoparia) came out at 0%; in test [1] it was 100%; in test [2], 100%; in test [3], 0%; in test [4] it was 0%. The pest or weed control at 500 g/ha in the test with Kochia (Kochia scoparia) is 60%; in test [1], 100%; in test [2], 100%; in test [3], 20%; in test [4] it was 0%.

In the case of `CN1C[C@H](c2cc(F)cc(F)c2)[C@@H](C(=O)Nc2c(F)cccc2F)C1=O` [Compound 759], the pest or weed control at 125 g/ha in the test with Kochia (Kochia scoparia) amounted to 0%; in test [1] it was 70%; in test [2], 90%; in test [3] it was 0%; in test [4], 0%. Also, the pest or weed control at 500 g/ha in the test on Kochia (Kochia scoparia) stood at 20%; in test [1] it was 100%; in test [2], 100%; in test [3], 0%; in test [4], 0%.

(Values after US12077503B2, “Substituted cyclic amides and their use as herbicides” (FMC CORPORATION, priority 2015, dated 2024).)
